Source: the CheMixHub viscosity set
Several values for one entry are separate records, joined by “and”; a condition that tells them apart may be missing. Equal entries are not always repeated.

Experiment: xn = mol fraction of the nth substance listed

COc1ccccc1 + CO
Conditions | viscosity [mPa·s]
298.15 K, 101 kPa, x1 = 0.0501 | 0.586
298.15 K, 101 kPa, x1 = 0.1098 | 0.623
298.15 K, 101 kPa, x1 = 0.1821 | 0.662
298.15 K, 101 kPa, x1 = 0.2706 | 0.707
298.15 K, 101 kPa, x1 = 0.3822 | 0.756
298.15 K, 101 kPa, x1 = 0.5271 | 0.809
298.15 K, 101 kPa, x1 = 0.7214 | 0.886
298.15 K, 101.33 kPa, x1 = 0.1024 | 0.6111
298.15 K, 101.33 kPa, x1 = 0.2039 | 0.67
298.15 K, 101.33 kPa, x1 = 0.2982 | 0.7131
298.15 K, 101.33 kPa, x1 = 0.4027 | 0.7591
298.15 K, 101.33 kPa, x1 = 0.4998 | 0.8009
298.15 K, 101.33 kPa, x1 = 0.5991 | 0.8271
298.15 K, 101.33 kPa, x1 = 0.7068 | 0.8651
298.15 K, 101.33 kPa, x1 = 0.8061 | 0.8975
298.15 K, 101.33 kPa, x1 = 0.9023 | 0.9373
303 K, 101.3 kPa, x1 = 0.0499 | 0.5675
303 K, 101.3 kPa, x1 = 0.1091 | 0.6038
303 K, 101.3 kPa, x1 = 0.2686 | 0.6883
303 K, 101.3 kPa, x1 = 0.5242 | 0.7935
303 K, 101.3 kPa, x1 = 0.7199 | 0.8751
303.15 K, 101.33 kPa, x1 = 0.1024 | 0.574
303.15 K, 101.33 kPa, x1 = 0.2039 | 0.6257
303.15 K, 101.33 kPa, x1 = 0.2982 | 0.6672
303.15 K, 101.33 kPa, x1 = 0.4027 | 0.7035
303.15 K, 101.33 kPa, x1 = 0.4998 | 0.7455
303.15 K, 101.33 kPa, x1 = 0.5991 | 0.7718
303.15 K, 101.33 kPa, x1 = 0.7068 | 0.8059
303.15 K, 101.33 kPa, x1 = 0.8061 | 0.8374
303.15 K, 101.33 kPa, x1 = 0.9023 | 0.8779
308.15 K, 101.33 kPa, x1 = 0.1024 | 0.5506
308.15 K, 101.33 kPa, x1 = 0.2039 | 0.5983
308.15 K, 101.33 kPa, x1 = 0.2982 | 0.638
308.15 K, 101.33 kPa, x1 = 0.4027 | 0.6731
308.15 K, 101.33 kPa, x1 = 0.4998 | 0.7065
308.15 K, 101.33 kPa, x1 = 0.5991 | 0.735
308.15 K, 101.33 kPa, x1 = 0.7068 | 0.7683
308.15 K, 101.33 kPa, x1 = 0.8061 | 0.7978
308.15 K, 101.33 kPa, x1 = 0.9023 | 0.8373
313.15 K, 101.33 kPa, x1 = 0.1024 | 0.4934
313.15 K, 101.33 kPa, x1 = 0.2039 | 0.5372
313.15 K, 101.33 kPa, x1 = 0.2982 | 0.5706
313.15 K, 101.33 kPa, x1 = 0.4027 | 0.6023
313.15 K, 101.33 kPa, x1 = 0.4998 | 0.6345
313.15 K, 101.33 kPa, x1 = 0.5991 | 0.6601
313.15 K, 101.33 kPa, x1 = 0.7068 | 0.6865
313.15 K, 101.33 kPa, x1 = 0.8061 | 0.7174
313.15 K, 101.33 kPa, x1 = 0.9023 | 0.751

Cc1ccc(S(=O)(=O)O)cc1 + c1c[nH]cn1
viscosity, 101.33 kPa
Conditions | 303.11 K | 303.14 K | 313.12 K | 313.14 K | 323.13 K | 323.14 K
x2 = 0.78 | 43.59 mPa·s | – | 27.71 mPa·s | – | 18.65 mPa·s | –
x2 = 0.8 | 54.18 mPa·s | 41.78 mPa·s | 34.32 mPa·s | 26.53 mPa·s | – | 20.96 mPa·s and 17.62 mPa·s

CC(C)=O + CCCCO
Conditions | viscosity [mPa·s]
298.15 K, 101 kPa, x1 = 0.12 | 1.65
298.15 K, 101 kPa, x1 = 0.24 | 1.164
298.15 K, 101 kPa, x1 = 0.35 | 0.8875
298.15 K, 101 kPa, x1 = 0.46 | 0.7108
298.15 K, 101 kPa, x1 = 0.56 | 0.5919
298.15 K, 101 kPa, x1 = 0.66 | 0.5089
298.15 K, 101 kPa, x1 = 0.75 | 0.4285
298.15 K, 101 kPa, x1 = 0.84 | 0.4014
298.15 K, 101 kPa, x1 = 0.92 | 0.3651
303.15 K, 101.33 kPa, x1 = 0.1152 | 1.535
303.15 K, 101.33 kPa, x1 = 0.2307 | 1.127
303.15 K, 101.33 kPa, x1 = 0.3341 | 0.879
303.15 K, 101.33 kPa, x1 = 0.4685 | 0.642
303.15 K, 101.33 kPa, x1 = 0.7032 | 0.427
303.15 K, 101.33 kPa, x1 = 0.7974 | 0.368

CC1COC(=O)O1 (configuration not stated) + O
298.15 K, 101 kPa
Conditions | viscosity [mPa·s]
x1 = 0.0025 | 0.9114
x1 = 0.005 | 0.9267
x1 = 0.01 | 0.959
x1 = 0.02 | 1.028
x1 = 0.025 | 1.064
x1 = 0.0307 | 1.099

CC1COC(=O)O1 (configuration not stated) + CC#N
viscosity [mPa·s], 101.3 kPa
Conditions | x1 = 0.0418 | x1 = 0.0892 | x1 = 0.1438 | x1 = 0.2071 | x1 = 0.2815 | x1 = 0.3701 | x1 = 0.4776 | x1 = 0.6104 | x1 = 0.7791
298.15 K | 0.383 | 0.423 | 0.479 | 0.551 | 0.642 | 0.778 | 0.968 | 1.248 | 1.675
303.15 K | 0.363 | 0.403 | 0.454 | 0.521 | 0.605 | 0.731 | 0.906 | 1.161 | 1.535
308.15 K | 0.347 | 0.384 | 0.432 | 0.494 | 0.575 | 0.693 | 0.846 | 1.078 | 1.42
313.15 K | 0.331 | 0.367 | 0.411 | 0.469 | 0.543 | 0.654 | 0.802 | 1.054 | 1.31
318.15 K | 0.316 | 0.353 | 0.397 | 0.455 | 0.509 | 0.625 | 0.76 | 0.965 | 1.22

CCC(N)(CO)CO + O
viscosity [mPa·s], 101.33 kPa
Conditions | x1 = 0.0364 | x1 = 0.0916 | x1 = 0.185 | x1 = 0.261 | x1 = 0.377
303.15 K | 1.765 | 4.993 | 21.96 | 56.54 | 199.2
313.15 K | 1.356 | 3.435 | 12.89 | 30.13 | 85.62
323.15 K | 1.053 | 2.504 | 8.22 | 17.36 | 44.4

c1ccc2ccccc2c1 + ClC(Cl)(Cl)Cl
viscosity [mPa·s], 101 kPa
Conditions | 303.15 K | 308.15 K | 313.15 K | 318.15 K | 323.15 K
x1 = 0.2515 | 1.085 | 1 | 0.9335 | 0.8708 | 0.8138
x1 = 0.4038 | – | – | 1.109 | 1.036 | 0.9672

Cc1ccc(S(=O)(=O)O)cc1 + C[N+](C)(C)Cc1ccccc1.[Cl-]
Conditions | viscosity [mPa·s]
298 K, 101 kPa, x2 = 0.3 | 12850

C1CCOC1 + CCOC(C)=O
101.32 kPa
Conditions | viscosity [mPa·s]
303.15 K, x2 = 0.0431 | 0.443
303.15 K, x2 = 0.0837 | 0.437
303.15 K, x2 = 0.128 | 0.434
303.15 K, x2 = 0.1718 | 0.431
303.15 K, x2 = 0.2625 | 0.425
303.15 K, x2 = 0.3504 | 0.421
303.15 K, x2 = 0.4521 | 0.416
303.15 K, x2 = 0.6544 | 0.41
303.15 K, x2 = 0.8229 | 0.407
303.15 K, x2 = 0.8817 | 0.407
303.15 K, x2 = 0.9396 | 0.406
313.15 K, x2 = 0.2044 | 0.384
313.15 K, x2 = 0.4059 | 0.375
313.15 K, x2 = 0.5072 | 0.373
313.15 K, x2 = 0.6002 | 0.37
313.15 K, x2 = 0.7996 | 0.369

O=C(O)CBr + [Br-].[Br-].[Br-].[Br-].[Sn+4]
viscosity [mPa·s], 101 kPa
Conditions | x2 = 0.0895 | x2 = 0.2636 | x2 = 0.4794 | x2 = 0.7268 | x2 = 0.9042
313.15 K | 3.74 | 3.07 | 2.48 | 2.04 | 1.88
323.15 K | 3.12 | 2.58 | 2.15 | 1.78 | 1.65
